From patent US9944618B2, “Inhibiting neurotransmitter reuptake” (Mayo Foundation for Medical Education and Research, priority 2013, dated 2018)
Where two headings read alike, the source gives them in different places.

Key:
[1] = biological target: human norepinephrine transporter (Homo sapiens (Human), UniProt P23975); assay: Human NET (norepinephrine transporter) uptake assay; type: cell-based; details: read-out: hNET Ki
In short: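 HEK293F cells transfected with human NET were thawed, plated at about 60,000 cells/well and held at 37 °C for at least 3 h. Compounds came from 10 mM DMSO stocks, with nomifensine as control, in 1×HBSS/0.02 M HEPES. Uptake was followed with a neurotransmitter transporter dye, dosed as % of vendor reconstitution, in triplicate.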

[2] = biological target: human dopamine transporter (Homo sapiens (Human), UniProt Q01959); assay: Human DAT (dopamine transporter) uptake assay; type: cell-based; details: read-out: hDAT Ki
In short: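 Uptake inhibition was measured in HEK293F cells transfected with human DAT, plated at ~60,000 cells/well and settled ≥3 h at 37 °C. Compounds came from 10 mM DMSO stocks. Read-out was uptake of a fluorescent neurotransmitter transporter dye in HBSS with 0.02 M HEPES, with dye level given as % of vendor reconstitution; n=3.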

[3] = biological target: human serotonin transporter (Homo sapiens (Human), UniProt P31645); assay: Human SERT (serotonin transporter) uptake assay; type: cell-based; details: read-out: hSERT Ki
In short: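 HEK293F cells transfected with human SERT, about 60,000 per well, settled for ≥3 h at 37° C before compound addition. Uptake was followed with a fluorescent transporter dye in HBSS with 0.02 M HEPES. Background came from 10 μM fluoxetine, nomifensine was the control, n=3.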

hERG = hERG (Homo sapiens (Human), UniProt Q12809); assay: Human ERG (hERG) assay, hERG currents in hERG-expressing CHO cells; type: cell-based
Excerpt: The voltage-dependent potassium channel encoded by the human ether-a-go-go-related gene (hERG) is believed to play a key role in repolarisation of the ventricular cardiac action potential. Changes in its activity, caused either by inherited mutations of the gene sequence or pharmacological modification, can lead to prolongation of action potential duration. This can lead to prolongation of the QT interval recorded in man on an electrocardiogram and to a potentially fatal cardiac arrhythmia known as Torsades de Pointes.
hERG currents were recorded from hERG-expressing CHO cells. The biophysical and pharmacological characterization of the hERG currents in these cells was performed.

CYP3A4 = CYP3A4 (Homo sapiens (Human), UniProt P08684); assay: Cytochrome P450 inhibition assay, recombinant CYP3A4 (BFC substrate); type: in vitro ADME; details: recombinant enzyme
CYP2D6 = CYP2D6 (Homo sapiens (Human), UniProt P10635); assay: Cytochrome P450 inhibition assay, recombinant CYP2D6 (MAMC substrate); type: in vitro ADME; details: recombinant enzyme
[4] = pKa of basic centres (Table 1); type: physicochemical
[5] = first base, e.g., an aliphatic primary, secondary, or tertiary amine, read-out: pKa (Base 1)
[6] = second base in the same molecule (if present), read-out: pKa (Base 2)
[7] = first base, e.g., an aliphatic primary, secondary, or tertiary amine
[8] = selected reference compounds, HEK293F cells, Cheng-Prusoff
[9] = selected reference compounds, CHO cells

Chain of CYP2D6 (P10635 whole entry): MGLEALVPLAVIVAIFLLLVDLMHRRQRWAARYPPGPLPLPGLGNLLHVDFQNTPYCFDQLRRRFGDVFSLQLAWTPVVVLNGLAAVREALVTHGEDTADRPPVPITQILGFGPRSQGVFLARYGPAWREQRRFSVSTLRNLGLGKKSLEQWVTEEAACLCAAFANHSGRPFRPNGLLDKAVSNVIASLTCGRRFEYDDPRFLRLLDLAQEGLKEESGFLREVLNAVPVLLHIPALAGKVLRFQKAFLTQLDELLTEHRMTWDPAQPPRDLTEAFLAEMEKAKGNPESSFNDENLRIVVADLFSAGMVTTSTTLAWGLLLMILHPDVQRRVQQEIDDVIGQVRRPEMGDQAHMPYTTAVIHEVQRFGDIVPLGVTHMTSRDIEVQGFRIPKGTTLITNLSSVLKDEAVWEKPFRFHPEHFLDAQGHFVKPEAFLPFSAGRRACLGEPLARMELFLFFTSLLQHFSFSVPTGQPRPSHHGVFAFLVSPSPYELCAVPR
Chain of human dopamine transporter (Q01959 whole entry): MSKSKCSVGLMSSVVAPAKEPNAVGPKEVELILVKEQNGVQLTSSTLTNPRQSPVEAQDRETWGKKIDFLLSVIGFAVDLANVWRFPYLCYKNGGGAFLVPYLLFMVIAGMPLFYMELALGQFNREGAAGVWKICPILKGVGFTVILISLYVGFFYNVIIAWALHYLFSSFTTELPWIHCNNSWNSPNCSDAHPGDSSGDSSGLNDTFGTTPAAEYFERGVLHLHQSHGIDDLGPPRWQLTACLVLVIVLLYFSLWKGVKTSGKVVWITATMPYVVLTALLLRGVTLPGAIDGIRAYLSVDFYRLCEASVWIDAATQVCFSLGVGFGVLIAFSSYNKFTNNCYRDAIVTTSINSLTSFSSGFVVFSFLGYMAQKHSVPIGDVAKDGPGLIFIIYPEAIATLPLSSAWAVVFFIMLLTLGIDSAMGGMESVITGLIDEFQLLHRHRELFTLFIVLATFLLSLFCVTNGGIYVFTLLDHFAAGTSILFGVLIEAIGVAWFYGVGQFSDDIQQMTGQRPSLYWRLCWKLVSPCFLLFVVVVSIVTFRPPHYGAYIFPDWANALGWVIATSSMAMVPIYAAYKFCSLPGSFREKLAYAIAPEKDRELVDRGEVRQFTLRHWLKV
Chain of human norepinephrine transporter (P23975 whole entry): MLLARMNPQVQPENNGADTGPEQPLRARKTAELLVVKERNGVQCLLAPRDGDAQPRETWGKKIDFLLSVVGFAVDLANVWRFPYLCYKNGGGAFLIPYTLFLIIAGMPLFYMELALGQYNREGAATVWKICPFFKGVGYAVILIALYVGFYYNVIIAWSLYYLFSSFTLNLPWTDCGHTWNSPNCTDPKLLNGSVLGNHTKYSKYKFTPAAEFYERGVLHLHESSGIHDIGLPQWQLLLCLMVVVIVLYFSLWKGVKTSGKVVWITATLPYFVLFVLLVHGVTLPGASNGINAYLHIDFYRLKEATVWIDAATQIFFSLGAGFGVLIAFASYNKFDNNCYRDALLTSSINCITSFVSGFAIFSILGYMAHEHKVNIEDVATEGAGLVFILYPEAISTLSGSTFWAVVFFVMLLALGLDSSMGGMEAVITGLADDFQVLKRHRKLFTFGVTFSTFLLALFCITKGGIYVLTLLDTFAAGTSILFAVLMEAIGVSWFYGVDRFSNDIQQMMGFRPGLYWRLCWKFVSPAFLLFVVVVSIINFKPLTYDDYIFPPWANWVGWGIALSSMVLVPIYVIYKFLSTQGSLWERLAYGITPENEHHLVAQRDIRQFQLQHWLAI
Chain of hERG (Q12809 whole entry): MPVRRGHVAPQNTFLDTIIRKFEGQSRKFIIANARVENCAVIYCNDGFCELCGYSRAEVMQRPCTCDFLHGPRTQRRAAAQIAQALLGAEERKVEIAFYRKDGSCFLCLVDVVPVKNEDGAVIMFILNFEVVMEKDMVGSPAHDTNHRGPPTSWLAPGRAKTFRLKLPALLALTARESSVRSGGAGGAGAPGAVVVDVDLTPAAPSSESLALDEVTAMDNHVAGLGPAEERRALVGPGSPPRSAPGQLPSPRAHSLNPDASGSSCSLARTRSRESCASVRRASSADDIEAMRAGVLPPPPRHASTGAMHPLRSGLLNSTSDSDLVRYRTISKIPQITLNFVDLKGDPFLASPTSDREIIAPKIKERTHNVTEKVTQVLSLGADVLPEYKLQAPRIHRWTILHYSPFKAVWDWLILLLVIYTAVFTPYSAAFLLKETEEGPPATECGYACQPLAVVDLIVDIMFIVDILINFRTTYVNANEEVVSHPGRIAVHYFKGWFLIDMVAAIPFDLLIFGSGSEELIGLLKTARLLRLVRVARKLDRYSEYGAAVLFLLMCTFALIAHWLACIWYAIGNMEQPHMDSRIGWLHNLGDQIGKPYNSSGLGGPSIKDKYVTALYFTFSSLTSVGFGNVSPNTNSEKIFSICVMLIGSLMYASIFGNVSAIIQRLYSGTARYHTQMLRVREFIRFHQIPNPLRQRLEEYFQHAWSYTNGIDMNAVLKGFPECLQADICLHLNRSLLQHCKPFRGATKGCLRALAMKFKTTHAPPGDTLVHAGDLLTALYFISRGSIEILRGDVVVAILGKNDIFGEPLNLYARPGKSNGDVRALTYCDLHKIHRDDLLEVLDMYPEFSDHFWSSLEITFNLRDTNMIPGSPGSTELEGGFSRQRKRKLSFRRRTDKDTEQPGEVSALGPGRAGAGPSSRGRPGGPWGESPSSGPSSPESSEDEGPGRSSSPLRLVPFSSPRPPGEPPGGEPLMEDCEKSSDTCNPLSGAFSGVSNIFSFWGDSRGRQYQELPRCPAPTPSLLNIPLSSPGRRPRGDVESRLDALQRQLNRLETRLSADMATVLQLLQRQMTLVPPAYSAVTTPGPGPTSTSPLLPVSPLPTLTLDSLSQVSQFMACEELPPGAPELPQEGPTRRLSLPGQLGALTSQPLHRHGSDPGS
Chain of CYP3A4 (P08684 whole entry): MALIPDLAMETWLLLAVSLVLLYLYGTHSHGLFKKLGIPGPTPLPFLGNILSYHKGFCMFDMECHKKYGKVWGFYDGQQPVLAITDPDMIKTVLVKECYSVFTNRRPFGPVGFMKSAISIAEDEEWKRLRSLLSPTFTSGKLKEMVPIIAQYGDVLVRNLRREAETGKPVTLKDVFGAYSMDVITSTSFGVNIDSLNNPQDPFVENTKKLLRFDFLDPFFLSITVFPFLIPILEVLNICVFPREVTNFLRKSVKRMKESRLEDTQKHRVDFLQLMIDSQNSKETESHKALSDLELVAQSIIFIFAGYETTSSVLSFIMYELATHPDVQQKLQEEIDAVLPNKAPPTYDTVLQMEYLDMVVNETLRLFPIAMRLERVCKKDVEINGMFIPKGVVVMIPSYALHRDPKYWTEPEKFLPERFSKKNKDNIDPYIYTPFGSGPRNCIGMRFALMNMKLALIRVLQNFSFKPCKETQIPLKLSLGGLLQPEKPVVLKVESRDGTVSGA
Chain of human serotonin transporter (P31645 whole entry): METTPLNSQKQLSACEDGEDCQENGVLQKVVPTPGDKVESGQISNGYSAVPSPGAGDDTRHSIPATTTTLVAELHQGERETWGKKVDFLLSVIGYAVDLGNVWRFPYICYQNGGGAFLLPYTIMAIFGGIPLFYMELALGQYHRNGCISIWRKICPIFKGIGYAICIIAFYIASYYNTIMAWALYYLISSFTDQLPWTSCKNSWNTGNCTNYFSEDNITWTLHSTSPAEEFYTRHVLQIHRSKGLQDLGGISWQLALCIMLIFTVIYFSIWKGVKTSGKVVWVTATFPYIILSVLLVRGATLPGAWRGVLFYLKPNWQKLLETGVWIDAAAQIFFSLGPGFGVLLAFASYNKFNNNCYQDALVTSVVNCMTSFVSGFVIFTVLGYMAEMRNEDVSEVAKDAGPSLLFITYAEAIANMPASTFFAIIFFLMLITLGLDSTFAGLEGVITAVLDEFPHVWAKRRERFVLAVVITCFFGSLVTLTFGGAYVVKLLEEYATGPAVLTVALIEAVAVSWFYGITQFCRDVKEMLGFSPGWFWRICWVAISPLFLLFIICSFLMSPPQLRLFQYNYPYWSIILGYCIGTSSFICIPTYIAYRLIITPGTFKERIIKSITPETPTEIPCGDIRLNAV

Structure (SMILES) | Ki [1] [nM] | Ki [2] [nM] | Ki [3] [nM] | IC50 (hERG; hERG-expressing CHO cells) [nM] | IC50 (CYP3A4) [nM] | IC50 (CYP2D6) [nM] | pKa [4, 5] | pKa [4, 6] | pKa (Base 1) [4, 7] | Ki [1, 8] [nM] | Ki [2, 8] [nM] | Ki [3, 8] [nM] | IC50 (hERG; [9]) [nM]
CNC[C@H](c1ccc2ccccc2c1)[C@H](OC)c1ccc2c(c1)OCO2 (racemic) [Compound 136] | 37.4 | 64.5 | 15.7 | 5400 | 3400 | 190 | 9.7 | – | – | – | – | – | –
CNC[C@H](c1ccc2ccccc2c1)[C@H](O)c1ccccc1C [Compound 28] | 2.4 | 43.8 | 3.4 | 15000 | 9600 | 160 | 9.7 | – | – | – | – | – | –
NC[C@H](c1ccc2ccccc2c1)[C@@H](O)c1ccncc1Cl [Compound 95] | 33.5 | 30.7 | 36.9 | 33000 | 11000 | 410 | 8 | – | – | – | – | – | –
CNCC(Cc1ccccc1C)c1ccc2ccccc2c1 (stereo not shown) [Compound 134] | 6 | 56.8 | 7.8 | 6200 | 9900 | 220 | 10.1 | – | – | – | – | – | –
CNCC(c1ccc2ccccc2c1)[C@H](CO)c1ccccc1 (single isomer, unassigned) [Compound 25] | 2.2 | 106 | 22.7 | 33000 | – | 320 | 9.9 | – | – | – | – | – | –
C[C@](CN)(Cc1cccnc1)c1ccc2ccccc2c1 [Compound 42] | 3.2 | 89.5 | 0.3 | 27000 | 3400 | 1100 | 9.2 | 5.2 | – | – | – | – | –
CNC[C@H](c1ccc(Cl)c(Cl)c1)[C@@H](O)c1cccc(NC(C)=O)c1 [Compound 94] | 32.8 | 52.6 | 367 | 33000 | 18000 | 3000 | 9.4 | – | – | – | – | – | –
CNC[C@H](c1ccc(Cl)c(Cl)c1)[C@H](O)c1ccccc1SC [Compound 156] | 17.2 | 48.5 | 22.4 | 4100 | 9500 | 170 | 9.4 | – | – | – | – | – | –
CNC[C@@H](c1ccc(Br)c(Cl)c1)[C@@H](O)c1ccccc1 [Compound 110] | 142 | 24 | 677 | 6800 | 17000 | 1900 | 9.4 | – | – | – | – | – | –
CNC[C@H](c1ccc2ccccc2c1)[C@H](OCC(N)=O)c1ccccc1 [Compound 3] | 1.3 | 5.2 | 0.6 | 33000 | 20000 | 1300 | 9.6 | – | – | – | – | – | –
CNCC(Cc1ccccc1C)c1ccc2ccccc2c1 (stereo not shown) [Compound 39] | 3.1 | 34.3 | 12.6 | 8200 | 8400 | 170 | – | – | 10.1 | – | – | – | –
CNC[C@H](c1ccc2ccccc2c1)[C@H](OCC(=O)N1CCCC1)c1ccccc1 [Compound 50] | 3.8 | 36.5 | 2.9 | 17000 | – | 800 | 9.6 | – | – | – | – | – | –
CN(C)C[C@H](c1ccc2ccccc2c1)[C@H](N)c1ccccc1 [Compound 82] | 15.3 | 9.8 | 15.3 | 19000 | 20000 | 990 | 9 | 8.3 | – | – | – | – | –
CNC[C@@H](c1ccc2ccccc2c1)[C@H](O)c1ccccc1 [compound 180] | – | – | – | – | – | – | – | – | – | 2.9 | 47.5 | 14.8 | 32000
CNC[C@H](c1ccc(Cl)c(Cl)c1)[C@H](O)c1cccc(Br)c1 [Compound 76] | 11.9 | 21.2 | 222 | 3000 | 3600 | 140 | 9.4 | – | – | – | – | – | –
CNC[C@H](c1ccc2ccccc2c1)[C@H](OCC(=O)NCCO)c1ccccc1 [Compound 14] | 1.6 | 79.3 | 3.1 | 33000 | 20000 | 3700 | 9.6 | – | – | – | – | – | –
CNCC(Cc1ccc(C)s1)c1ccc2ccccc2c1 (stereo not shown) [Compound 139] | 5 | 88.7 | 6.4 | 3100 | 13000 | 620 | 10 | – | – | – | – | – | –
CNC[C@H](C[C@H](O)c1ccccc1)c1ccc2ccccc2c1 [Compound 93] | 29.5 | 137 | 1.1 | 13000 | – | 1200 | 10.1 | – | – | – | – | – | –

Structure (SMILES) | Ki [1] [nM] | Ki [2] [nM] | Ki [3] [nM] | IC50 (hERG; hERG-expressing CHO cells) [nM] | IC50 (CYP3A4) [nM] | IC50 (CYP2D6) [nM] | pKa [4, 5] | pKa [4, 6] | pKa (Base 1) [4, 7] | Ki [1, 8] [nM] | Ki [2, 8] [nM] | Ki [3, 8] [nM] | IC50 (hERG; [9]) [nM]
CNCC(Cc1ccccc1CO)c1ccc2ccccc2c1 (stereo not shown) [Compound 90] | 22.6 | 86.2 | 25.4 | 12000 | – | 590 | 10 | – | – | – | – | – | –
CN1CCO[C@H](c2ccccc2)[C@@H](c2ccc3ccccc3c2)C1 [Compound 77] | 12.4 | 44.7 | 3 | 4500 | – | 5700 | 8.2 | – | – | – | – | – | –
c1ccc([C@@H]2OCCNC[C@H]2c2ccc3ccccc3c2)cc1 [Compound 64] | 7.2 | 9.4 | 11.3 | 20000 | – | 5100 | 9.3 | – | – | – | – | – | –
CCOC(=O)CO[C@H](c1ccccc1)[C@H](CNC)c1ccc2ccccc2c1 [Compound 35] | 2.8 | 70.8 | 3.7 | 13000 | – | 320 | 9.6 | – | – | – | – | – | –
CNC[C@H](c1ccc2ccccc2c1)[C@H](OCc1cc(C)on1)c1ccccc1 [Compound 18] | 1.8 | 31.9 | 0.4 | 4600 | – | 330 | 9.6 | – | – | – | – | – | –
CNCC(Cc1ccccc1OC)c1ccc2ccccc2c1 (stereo not shown) [Compound 132] | 10.3 | 41.8 | 12.4 | 4700 | – | – | – | – | 10.1 | – | – | – | –
CNC[C@H](c1ccc2ccccc2c1)[C@H](OCc1cc(C)no1)c1ccccc1 [Compound 20] | 1.9 | 36.1 | 3.2 | 4700 | – | – | 9.6 | – | – | – | – | – | –
CNC[C@H](c1ccc2ccccc2c1)[C@H](OCC(=O)NC)c1ccccc1 [Compound 1] | 0.7 | 20.7 | 1.9 | 33000 | – | 1100 | 9.6 | – | – | – | – | – | –
CNCC(Cc1ccccc1CO)c1ccc2ccccc2c1 (stereo not shown) [Compound 2] | 1 | 5.5 | 2.5 | 15000 | – | 170 | – | – | 10 | – | – | – | –
CCNC(=O)CO[C@H](c1ccccc1)[C@H](CNC)c1ccc2ccccc2c1 [Compound 6] | 1.4 | 39.2 | 0.8 | 25000 | – | 760 | 9.6 | – | – | – | – | – | –
CN(C)C[C@H](c1ccc2ccccc2c1)[C@H](O)c1ccccc1 [Compound 83] | 15.7 | 46.7 | – | 4300 | – | – | 9 | – | – | – | – | – | –
CNC[C@H](c1ccc2ccccc2c1)[C@H](OCC(=O)N(C)C)c1ccccc1 [Compound 33] | 2.7 | 13.2 | 1.4 | 33000 | – | 550 | 9.6 | – | – | – | – | – | –
CNCC(c1ccc(F)c(Cl)c1)[C@H](O)c1ccccc1 (stereo partly shown) [Compound 73] | – | – | – | 31000 | 20000 | 790 | 9.3 | – | – | – | – | – | –
CNC[C@H](c1ccc2ccccc2c1)[C@H](O)c1ccccc1 [compound 173] | – | – | – | – | – | – | – | – | – | 0.5 | 4.6 | 1.2 | 8800
CNC[C@H](c1ccc2ccccc2c1)[C@H](OCC(=O)N1CCC1)c1ccccc1 [Compound 30] | 2.4 | 14.3 | 1 | 29000 | – | – | 9.6 | – | – | – | – | – | –
CNC[C@@H](c1ccc(Cl)c(Cl)c1)[C@@H](O)c1ccccc1 [Compound 114] | 171 | 27 | 661 | 11000 | – | – | 9.4 | – | – | – | – | – | –
CCCNC(=O)CO[C@H](c1ccccc1)[C@H](CNC)c1ccc2ccccc2c1 [Compound 29] | 2.4 | 37.2 | 1.1 | 11000 | – | 650 | 9.6 | – | – | – | – | – | –
